In patent publication US5874235A, “Screening assays for cancer chemopreventative agents” (The Johns Hopkins University, priority 1997, dated 1999):

Key:
COX in SW480 cells = test: COX activity in treated cells; assay type: cell-based, human
SW480 cells [1] = test: Sphingomyelin levels, bacterial sphingomyelinase method; assay type: cell-based, human
Protocol: (§1) FIGS. 4A, 4B, 4C, 4D, 4E and 4F. The role of arachidonic acid in NSAID-mediated apoptosis. […] HCT116 and SW480 cells were treated with the indicated concentrations of SUS or INDO. Arachidonic acid (AA) levels were determined by measuring release of ^3 H-AA into the media as previously described (18). Data are indicated as the mean of three replicates with the error bars corresponding to the standard deviation. In addition, the nature of the released radiolabeled material was evaluated by thin layer chromatography as previously described (28). […] HCT116 and SW480 cells were incubated with ^3 H-choline chloride (0.5 mCi ml^-1, 80 Ci mmol^-1, New England Nuclear) for 48 hours. After labeling, cells were washed with HBSS (Gibco) and treated with SUS or INDO for the indicated times. Sphingomyelin measurements were performed using the bacterial sphingomyelinase method as previously described (18). Sphingomyelin levels at each time point are plotted as a percentage of that in untreated control cells. For each point, the mean of at least two independent experiments is presented with the error bars corresponding to the standard deviations. […] SW480 cells were treated with 200 μM arachidonic acid (AA), SUS (SUS) or behenic acid as a control fatty acid (FA) as indicated. […] SW480 cells were treated with suboptimal doses (100 μM) of arachidonic acid (AA), SUS (SUS), or both (AA+SUS) as indicated. After 48 hours of treatment, apoptosis and ceramide increases were assessed as described for FIGS. 1 and 3, respectively. Ceramide increases (left axis) were expressed as fold increases relative to untreated cells. Apoptosis (right axis) was expressed as percent apoptotic cells minus percent apoptotic cells in untreated cells (5.6%+/-2.4). Data are indicated as the mean of duplicates with the error bars corresponding to the standard deviation.
(§2) To test whether the increased ceramide was associated with evidence of augmented sphingomyelinase activity, we measured total sphingomyelin levels after SUS treatment. […] We also measured neutral sphingomyelinase activity in lysates from the treated cells and no differences were found. Neutral sphingomyelinase activity was assayed as described (18). After cell lysis, protein concentrations were determined using the Bradford method (Bio-Rad) and […] cellular protein was used in each assay. Neutral sphingomyelinase activity was determined by measuring the rate of hydrolysis of ^14 C-labelled sphingomyelin (Amersham). SW480 and HCT116 cell lines were treated with SUS (50, 200, and 600 μM) for 6 to 24 hours.

HCT116 cells [2] = test: as above; assay type: cell-based, human
Protocol: as §1, §2

SW480 cells [3] = test: Ceramide levels, E. coli diacylglycerol (DAG) kinase assay; assay type: cell-based, human
Protocol: (§3) Cells were harvested and ceramide was quantified. The first lane of each panel corresponds to a ceramide standard (ceramide type III, Sigma). […] HCT116 and SW480 cells were treated with SUS or INDO as indicated. Ceramide levels were determined as described above. […] Control cells were treated with DMSO vehicle only. Cells were harvested at the indicated times following treatment and ceramide levels were determined as described above. The data are plotted as the mean of at least two experiments with the error bars corresponding to the standard deviation.
(§4) Ceramide levels were measured using the Escherichia coli diacylglycerol (DAG) kinase assay as previously described (30) with the following modifications. After the initial lipid extraction, phases were broken by adding 2 ml chloroform and 2 ml 1M NaCl and lipids were washed with 1M NaCl prior to drying under nitrogen (32, 33). After solubilization, samples were sonicated for 15 seconds. The DAG reaction was performed for 30 minutes at 25° C. in a 100 μl reaction volume with 3.5 μg DAG kinase (Calbiochem) and […] γ^32 P-ATP (Dupont NEN, 6000 Ci/mmol). After extraction of the labeled lipids, the lower chloroform phase was washed with 1% HCl prior to drying under nitrogen. The solvent mixture for thin layer chromatography was chloroform:acetone:methanol:acetic acid:water (10:4:3:2:1). Samples were quantitated using a Phosphorimager (Molecular Dynamics).

HCT116 cells [4] = test: as above; assay type: cell-based, human
Protocol: as §3, §4

HCT116 cells [5] = test: Phosphatidylserine exposure by merocyanine staining; assay type: cell-based, human; settings: 125 μM SUS, 48 hours
Protocol: Phosphatidylserine exposure was assessed by merocyanine staining as previously described (31). Forty-eight hours after treatment with 125 μM SUS, 44% of HCT116 stained with merocyanine versus 4% in the vehicle-treated control cells. Likewise, 74% of SW480 cells stained with merocyanine 50 hours after treatment with 200 μM SUS versus 1.5% of the vehicle-treated control cells.

[6] = test system: primary human diploid fibroblast (HDF); test: Ceramide levels in primary fibroblasts; assay type: cell-based; settings: 200 μM SUS, 48 hours, read-out: increase in ceramide levels
Protocol: as §4
This ability of SUS is not limited to colon cancer cells; primary fibroblasts and immortalized keratinocytes can increase ceramide levels and undergo apoptosis in response to SUS. […] Forty-eight hours after exposure to 200 μM SUS greater than 70% of the cells had undergone apoptosis and ceramide levels were 8.2 and 4.7 fold increased in HDF and HaCat cells, respectively. […]

[7] = 8 hours post-treatment, before morphologic features of apoptosis

CSc1ccc(/C=C2/C(C)=C(CC(=O)O)c3cc(F)ccc32)cc1 [SUS, sulindac sulfide]
COX activity, % of controls (COX in SW480 cells; 50 μM SUS): 74+/-22%
COX activity, % of controls (COX in SW480 cells; 200 μM SUS): 37+/-27%
decrease in sphingomyelin levels (SW480 cells [1]; 48 hours after SUS treatment): 40-50%
decrease in sphingomyelin levels (SW480 cells [1]; suboptimal doses of SUS): inadequate to decrease sphingomyelin levels
decrease in sphingomyelin levels (HCT116 cells [2]; 48 hours after SUS treatment): 40-50%
decrease in sphingomyelin levels (HCT116 cells [2]; suboptimal doses of SUS): inadequate to decrease sphingomyelin levels
ceramide levels early after treatment (SW480 cells [3]; [7]): increased to substantial levels
fold induction at 200 µM (SW480 cells [3]; Homo sapiens, SW480, SUS 200 μM, with or without 10 μM CHX, 48 hours, read-out: fold increase in ceramide levels relative to vehicle controls): 9.2 ± 0.1
magnitude of the ceramide increase (SW480 cells [3]; SUS): 10 fold
ceramide induction (SW480 cells [3]; SUS 50 μM): did not induce ceramide
ceramide induction (SW480 cells [3]; SUS 100 μM): not at 100 μM
ceramide induction (SW480 cells [3]; SUS 200 μM): induced both ceramide and cell death
time of maximum ceramide induction (SW480 cells [3]; SUS 200 μM): 24 to 48 h
effect on ceramide levels (SW480 cells [3]; suboptimal doses, 100 μM each, separately or together, 48 hours): little effect on ceramide levels
ceramide levels early after treatment (HCT116 cells [4]; [7]): increased to substantial levels
fold induction at 125 µM (HCT116 cells [4]; Homo sapiens, HCT-116, SUS 125 μM, with or without 10 μM CHX, 48 hours, read-out: fold increase in ceramide levels relative to vehicle controls): 10 ± 0.4
ceramide induction (HCT116 cells [4]; SUS 50 μM): induced neither
ceramide induction (HCT116 cells [4]; SUS 125 μM): induced both cell death and ceramide
time of maximum ceramide induction (HCT116 cells [4]; SUS 125 μM): 24 to 48 h
cells stained with merocyanine (HCT116 cells [5]): 44%
fold induction at 200 µM [6]: 8.2
